Entries after “also recorded” stand apart in the source; their conditions may differ.
Tests used:
Format in all cases: cell-based
[1] = molecular target: T1, CDK9 (Homo sapiens, UniProt P50750); assay: Enzyme degradation assay (western blot) in Jurkat cells, CDK9
T1 construct: endogenous in cells; host or cells: Jurkat cells
Procedure: (§1) Cells are treated with a control or a bifunctional compound of the application alone or in combination with an agent that blocks proteasomal degradation at a single concentration or various concentrations. After treatment, cells are washed and harvested by resuspending in buffer and lysed on ice 30 minutes. Lysates are then cleared by centrifugation. Samples are boiled and equal amount of protein is loaded onto polyacrylamide gel. The gel is transferred to nitrocellulose and blotted for CDK13, CDK12, CDK9, CDK7, CDK2, CDK1, PolII serine 2 phosphorylation or Tubulin.
(§2) Jurkat cells were treated with DMSO (as a control) or 500 nM of SNS-032 or 500 nM of a bifunctional compound of the application (i.e., Compound I-1, Compound I-2, or Compound I-3) or in combination with 5 μM MG132 for 6 hours. MGl32 is an agent that blocks proteasomal degradation. After treatment, cells were washed and harvested by resuspending in RIPA lysis buffer ([…] Tris-HCl, […] NaCl, 1% NP-40, 0.5% sodium deoxycholate, and 1% SDS, pH 7.4, protease and phosphatase inhibitors) and lysed on ice 30 minutes. Lysates were cleared by centrifugation at 15,000 rpm 30 minutes. Samples were boiled and equal amounts of protein were loaded onto gel. The gel was transferred to nitrocellulose and blotted for CDK13, CDK12, CDK9, CDK7, CDK2, CDK1, or tubulin.
(§3) Alternatively, Jurkat cells were treated with DMSO (as a control) or various concentrations of Compound I-3 alone (about 312 nm, 625 nm, 1.25 uM, 2.5 uM, and 5 uM) or with 5 μM MG132. After treatment, cells were washed and harvested by resuspending in RIPA lysis buffer ([…] Tris-HCl, […] NaCl, 1% NP-40, 0.5% sodium deoxycholate, and 1% SDS, pH 7.4, protease and phosphatase inhibitors) and lysed on ice 30 minutes. Equal amount of protein was loaded onto gel and blotted for CDK13, CDK9, CDK7, CDK2, CDK1, or tubulin.
(§4) Jurkat cells were treated with a DMSO (as a control) or various concentrations SNS-032 or Compound I-3 for 6 hours. After treatment, cells were washed and harvested by resuspending in RIPA lysis buffer ([…] Tris-HCl, […] NaCl, 1% NP-40, 0.5% sodium deoxycholate, and 1% SDS, pH 7.4, protease and phosphatase inhibitors) and lysed on ice 30 minutes. Equal amount of protein was loaded onto gel and blotted for […], CDK9, or tubulin.
(§5) Jurkat cells were treated with 500 nM of Compound I-3 for 15 minutes, 30 minutes, 1 hour, 2 hours, 3 hours, 4 hours, or 6 hours or DMSO control for 6 hours. After treatment, cells were washed and harvested by resuspending in RIPA lysis buffer ([…] Tris-HCl, […], 1% NP-40, 0.5% sodium deoxycholate, and 1% SDS, pH 7.4, protease and phosphatase inhibitors) and lysed on ice 30 minutes. Equal amount of protein was loaded onto gel and blotted for CDK13, CDK12, CDK9, or tubulin.

[2] = molecular target: T2, CDK12 (Homo sapiens, UniProt Q9NYV4); assay: Enzyme degradation assay (western blot) in Jurkat cells, CDK12; settings: for degradation of CDK12: 6 hours
T2 construct: endogenous in cells; host or cells: Jurkat cells
T2 sequence (Q9NYV4 whole entry): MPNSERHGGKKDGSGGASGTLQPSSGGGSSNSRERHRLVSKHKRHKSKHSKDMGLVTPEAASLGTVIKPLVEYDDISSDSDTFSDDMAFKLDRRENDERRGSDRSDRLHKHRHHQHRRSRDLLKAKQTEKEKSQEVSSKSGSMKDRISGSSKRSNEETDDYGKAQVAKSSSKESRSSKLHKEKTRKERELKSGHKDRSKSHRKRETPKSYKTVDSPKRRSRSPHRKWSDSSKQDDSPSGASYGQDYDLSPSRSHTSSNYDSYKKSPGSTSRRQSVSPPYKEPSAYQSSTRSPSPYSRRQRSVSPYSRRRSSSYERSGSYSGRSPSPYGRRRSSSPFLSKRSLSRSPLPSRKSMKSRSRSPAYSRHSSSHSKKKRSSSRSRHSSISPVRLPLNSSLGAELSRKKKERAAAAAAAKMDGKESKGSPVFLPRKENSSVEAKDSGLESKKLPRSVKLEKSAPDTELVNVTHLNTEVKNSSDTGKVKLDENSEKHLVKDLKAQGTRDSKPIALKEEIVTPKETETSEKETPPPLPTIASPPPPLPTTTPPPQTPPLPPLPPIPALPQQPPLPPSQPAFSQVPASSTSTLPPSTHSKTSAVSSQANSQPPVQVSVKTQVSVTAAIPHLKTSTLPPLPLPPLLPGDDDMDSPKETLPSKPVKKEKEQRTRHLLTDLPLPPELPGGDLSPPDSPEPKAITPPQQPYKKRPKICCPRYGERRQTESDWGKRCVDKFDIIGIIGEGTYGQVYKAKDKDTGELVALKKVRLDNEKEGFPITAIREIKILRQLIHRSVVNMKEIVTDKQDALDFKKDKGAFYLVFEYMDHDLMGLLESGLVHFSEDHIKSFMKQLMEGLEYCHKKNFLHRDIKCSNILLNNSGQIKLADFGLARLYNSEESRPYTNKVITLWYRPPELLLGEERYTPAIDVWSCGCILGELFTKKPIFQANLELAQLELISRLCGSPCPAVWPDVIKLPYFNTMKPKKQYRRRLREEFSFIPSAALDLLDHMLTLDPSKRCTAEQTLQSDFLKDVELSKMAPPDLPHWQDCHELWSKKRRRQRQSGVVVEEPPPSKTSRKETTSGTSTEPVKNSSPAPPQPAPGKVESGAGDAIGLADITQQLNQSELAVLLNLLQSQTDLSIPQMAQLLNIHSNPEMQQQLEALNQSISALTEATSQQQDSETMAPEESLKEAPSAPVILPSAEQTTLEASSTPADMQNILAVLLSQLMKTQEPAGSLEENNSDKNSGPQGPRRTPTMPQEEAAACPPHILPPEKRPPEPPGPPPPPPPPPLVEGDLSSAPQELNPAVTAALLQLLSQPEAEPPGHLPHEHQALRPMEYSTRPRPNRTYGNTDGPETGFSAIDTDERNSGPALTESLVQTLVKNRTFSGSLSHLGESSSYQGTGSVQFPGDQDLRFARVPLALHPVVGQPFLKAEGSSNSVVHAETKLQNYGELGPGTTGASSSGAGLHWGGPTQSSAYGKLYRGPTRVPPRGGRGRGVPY
T2 sequence (O75909 whole entry partner): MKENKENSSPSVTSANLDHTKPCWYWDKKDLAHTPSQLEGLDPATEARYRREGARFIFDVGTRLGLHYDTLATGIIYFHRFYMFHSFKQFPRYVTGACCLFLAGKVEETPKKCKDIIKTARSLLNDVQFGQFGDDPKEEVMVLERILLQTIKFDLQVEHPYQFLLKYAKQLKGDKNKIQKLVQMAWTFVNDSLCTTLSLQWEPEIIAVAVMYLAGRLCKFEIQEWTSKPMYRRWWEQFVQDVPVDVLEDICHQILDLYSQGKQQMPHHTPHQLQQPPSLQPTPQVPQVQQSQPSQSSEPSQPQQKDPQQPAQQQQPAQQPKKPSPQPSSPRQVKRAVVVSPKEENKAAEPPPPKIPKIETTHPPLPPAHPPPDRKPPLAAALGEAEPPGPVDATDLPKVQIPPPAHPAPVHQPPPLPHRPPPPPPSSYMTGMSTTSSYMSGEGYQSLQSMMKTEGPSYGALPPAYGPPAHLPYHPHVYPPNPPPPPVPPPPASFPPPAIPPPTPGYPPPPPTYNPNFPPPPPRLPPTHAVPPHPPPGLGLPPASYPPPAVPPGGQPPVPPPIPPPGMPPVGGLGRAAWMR
Procedure: as §1, §2, §5

[3] = tested on: PolII serine 2 phosphorylation; assay: Western blot for PolII serine 2 phosphorylation in Jurkat cells; settings: various concentrations, 6 hours
Procedure: as §1, §4

[4] = tested on: Molt4 wild-type cells; assay: Cell viability assay (celltiter glo), wild-type cells; settings: wild-type (WT) Molt4 cells, titration, 72 hours
Procedure: (§6) Wild-type or cereblon null cells are treated with various concentrations of a bifunctional compound of the invention and allowed to grow. Cells are then assayed to determine cell viability by measuring the amount of ATP present, which is an indicator of cell metabolic activity. Results are graphed as relative luminescent values.
(§7) Molt4 wild-type or cereblon null cells were treated with a titration of a bifunctional compound of the invention (i.e., Compound I-1, Compound I-2, or Compound I-3) and allowed to grow for 72 hours. Cells were assayed using celltiter glo (Promega) to determine cell viability by measuring the amount of ATP present, which is an indicator of cell metabolic activity. Results are graphed as relative luminescent values.

[5] = molecular target: T3, CDK13 (Homo sapiens, UniProt Q14004); assay: Enzyme degradation assay (western blot) in Jurkat cells, CDK13
T3 construct: endogenous in cells; host or cells: Jurkat cells
T3 sequence (Q14004 whole entry): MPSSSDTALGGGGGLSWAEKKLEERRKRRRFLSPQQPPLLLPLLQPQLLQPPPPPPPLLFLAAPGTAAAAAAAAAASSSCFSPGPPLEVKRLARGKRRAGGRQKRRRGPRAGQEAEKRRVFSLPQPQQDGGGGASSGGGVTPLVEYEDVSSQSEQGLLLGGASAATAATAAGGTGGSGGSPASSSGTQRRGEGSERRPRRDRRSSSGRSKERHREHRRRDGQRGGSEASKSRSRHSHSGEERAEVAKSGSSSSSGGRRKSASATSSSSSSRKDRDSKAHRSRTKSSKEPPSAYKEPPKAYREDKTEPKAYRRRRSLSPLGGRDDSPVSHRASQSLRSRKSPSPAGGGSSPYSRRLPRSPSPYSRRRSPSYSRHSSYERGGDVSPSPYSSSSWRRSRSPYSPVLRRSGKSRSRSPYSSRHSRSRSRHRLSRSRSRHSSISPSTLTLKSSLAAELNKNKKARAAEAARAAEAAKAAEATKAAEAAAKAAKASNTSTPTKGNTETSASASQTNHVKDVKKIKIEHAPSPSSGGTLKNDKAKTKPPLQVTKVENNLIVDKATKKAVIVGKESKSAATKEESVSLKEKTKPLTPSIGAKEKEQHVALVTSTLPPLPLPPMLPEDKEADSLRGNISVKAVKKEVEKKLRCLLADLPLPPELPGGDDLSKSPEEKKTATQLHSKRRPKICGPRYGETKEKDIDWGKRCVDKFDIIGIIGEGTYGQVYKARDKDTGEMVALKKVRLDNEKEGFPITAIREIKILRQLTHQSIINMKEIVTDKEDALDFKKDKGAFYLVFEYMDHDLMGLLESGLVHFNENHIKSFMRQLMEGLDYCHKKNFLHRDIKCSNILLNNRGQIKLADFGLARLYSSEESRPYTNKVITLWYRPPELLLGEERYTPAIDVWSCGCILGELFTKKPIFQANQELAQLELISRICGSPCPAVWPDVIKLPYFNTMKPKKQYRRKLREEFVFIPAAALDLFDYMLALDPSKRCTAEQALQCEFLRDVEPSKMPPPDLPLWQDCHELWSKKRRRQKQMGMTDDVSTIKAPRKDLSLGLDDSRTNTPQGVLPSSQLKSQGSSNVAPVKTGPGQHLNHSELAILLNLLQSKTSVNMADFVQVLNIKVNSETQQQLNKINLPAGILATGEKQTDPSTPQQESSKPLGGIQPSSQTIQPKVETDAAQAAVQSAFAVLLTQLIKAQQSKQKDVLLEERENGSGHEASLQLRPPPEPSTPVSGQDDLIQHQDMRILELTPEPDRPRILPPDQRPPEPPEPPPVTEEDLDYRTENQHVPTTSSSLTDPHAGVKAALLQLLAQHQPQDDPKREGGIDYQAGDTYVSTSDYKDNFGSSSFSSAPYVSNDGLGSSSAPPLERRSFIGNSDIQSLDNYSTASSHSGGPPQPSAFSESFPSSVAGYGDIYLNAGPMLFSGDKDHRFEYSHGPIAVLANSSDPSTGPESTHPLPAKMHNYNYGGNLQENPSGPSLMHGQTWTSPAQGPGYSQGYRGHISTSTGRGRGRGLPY
T3 sequence (O75909 whole entry partner): as the sequence (O75909 whole entry partner) above
Procedure: as §1, §2, §3, §5

[6] = tested on: Molt4 cereblon null cells (CRBN−/−); assay: Cell viability assay (celltiter glo), cereblon null cells; settings: cereblon knockout (CRBN−/−) Molt4 cells, titration, 72 hours
Procedure: as §6, §7

T1 sequence (P50750 whole entry): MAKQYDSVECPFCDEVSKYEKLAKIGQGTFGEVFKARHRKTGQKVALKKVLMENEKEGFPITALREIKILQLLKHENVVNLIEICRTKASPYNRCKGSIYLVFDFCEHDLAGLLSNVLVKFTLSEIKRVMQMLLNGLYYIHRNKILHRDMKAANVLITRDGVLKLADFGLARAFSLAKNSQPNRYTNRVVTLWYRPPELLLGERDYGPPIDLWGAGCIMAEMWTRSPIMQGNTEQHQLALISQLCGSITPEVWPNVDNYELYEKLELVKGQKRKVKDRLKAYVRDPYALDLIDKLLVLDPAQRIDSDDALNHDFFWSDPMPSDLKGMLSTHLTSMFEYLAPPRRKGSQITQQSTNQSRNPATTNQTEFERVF
T1 sequence (O60563 whole entry partner): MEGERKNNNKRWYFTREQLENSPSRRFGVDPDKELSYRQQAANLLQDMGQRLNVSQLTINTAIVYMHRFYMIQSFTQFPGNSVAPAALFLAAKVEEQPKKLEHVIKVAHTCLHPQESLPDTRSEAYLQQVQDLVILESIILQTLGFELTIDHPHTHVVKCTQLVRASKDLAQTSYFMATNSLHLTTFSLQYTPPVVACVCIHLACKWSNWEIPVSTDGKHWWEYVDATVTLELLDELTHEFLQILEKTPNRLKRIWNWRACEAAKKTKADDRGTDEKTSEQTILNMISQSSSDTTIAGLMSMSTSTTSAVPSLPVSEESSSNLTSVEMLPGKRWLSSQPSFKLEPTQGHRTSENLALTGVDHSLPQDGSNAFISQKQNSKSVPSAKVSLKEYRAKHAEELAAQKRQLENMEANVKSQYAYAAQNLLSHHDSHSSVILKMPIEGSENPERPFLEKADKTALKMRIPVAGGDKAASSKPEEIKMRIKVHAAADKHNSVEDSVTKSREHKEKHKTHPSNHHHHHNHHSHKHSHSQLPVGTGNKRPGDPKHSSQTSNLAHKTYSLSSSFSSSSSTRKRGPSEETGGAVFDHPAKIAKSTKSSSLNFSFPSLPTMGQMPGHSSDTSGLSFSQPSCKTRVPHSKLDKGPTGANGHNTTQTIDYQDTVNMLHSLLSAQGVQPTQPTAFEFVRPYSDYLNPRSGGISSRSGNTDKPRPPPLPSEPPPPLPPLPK

Structure (SMILES)	degradation of CDK9 on co-treatment with MG132 ([1]; 500 nM + 5 uM MG132, 6 hours)	CDK9 levels over time ([1]; 500 nM, 15 minutes to 6 hours)	degradation of CDK9 ([1]; 500 nM, 6 hours)	degradation of CDK9, various concentrations ([1]; about 312 nm to 5 uM, 6 hours)	degradation of CDK9, various concentrations, with MG132 ([1]; with 5 μM MG132, 6 hours)	degradation of CDK12 on co-treatment with MG132 ([2]; 500 nM + 5 uM MG132, 6 hours)	CDK12 levels over time ([2]; 500 nM, 15 minutes to 6 hours)	degradation of CDK12 ([2]; 500 nM)	serine 2 phosphorylation of PolII [3]	anti-proliferative effect [4]	degradation of CDK13 on co-treatment with MG132 ([5]; 500 nM + 5 uM MG132, 6 hours)	CDK13 levels over time ([5]; 500 nM, 15 minutes to 6 hours)	degradation of CDK13 ([5]; 500 nM, 6 hours)	degradation of CDK13, various concentrations ([5]; about 312 nm to 5 uM, 6 hours)	degradation of CDK13, various concentrations, with MG132 ([5]; with 5 μM MG132, 6 hours)	anti-proliferative effect [6]
CC(C)(C)c1cnc(CSc2cnc(NC(=O)C3CCN(CC(=O)NCCOCCOCCOCCNc4cccc5c4C(=O)N(C4CCC(=O)NC4=O)C5=O)CC3)s2)o1 (centres unmarked) [Compound I-3, N-(5-(((5-(tert-butyl)oxazol-2-yl)methyl)thio)thiazol-2-yl)-1-(14-((2-(2,6-dioxopiperidin-3-yl)-1,3-dioxoisoindolin-4-yl)amino)-2-oxo-6,9,12-trioxa-3-azatetradecyl)piperidine-4-carboxamide]	reduced; also recorded: largely inhibited	decrease in CDK9 levels over time; also recorded: degradation of CDK9 increased with time of exposure	complete degradation	specificity for CDK9 at lower concentrations; also recorded: degradation also increased	abolished degradation of CDK9	abolished; also recorded: largely inhibited	unaffected	partial degradation	decreased serine 2 phosphorylation	showed antiproliferative effects; also recorded: caused anti-proliferation	abolished; also recorded: largely inhibited	unaffected	partial degradation	CDK13 degradation at higher concentrations; also recorded: degradation also increased	abolished	not in the CRBN−/− cells; also recorded: anti-proliferation was no longer observed
CC(C)(C)c1cnc(CSc2cnc(NC(=O)C3CCNCC3)s2)o1 [SNS032, N-(5-(((5-(tert-butyl)oxazol-2-yl)methyl)thio)thiazol-2-yl)piperidine-4-carboxamide, reference compound]			no degradation					no degradation	decreased serine 2 phosphorylation				no degradation			

From patent publication US10532103B2, “Degradation of cyclin-dependent kinase 9 (CDK9) by conjugation of CDK9 inhibitors with E3 ligase ligand and methods of use” (Dana-Farber Cancer Institute, Inc., priority 2016, dated 2020)
